The record followed here is paper PMC7228900, “From sequence to function: a new workflow for nitrilase identification” (Applied Microbiology and Biotechnology, 2020).

The test system of this assay is T1, Nit09.
T1 construct: His6-tagged, expressed in E. coli TOP10 from pBAD18, Ni-TED purified; gene 1005 bp
The experiment in a line: GDH-coupled NADH oxidation at […] nm, Michaelis-Menten fit. The assay is classed as biochemical, uncultured bacterium. As to conditions: 37 °C, 0.1 M HEPES pH 8.0; fit up to 6 mM, substrate inhibition above 10 mM.

What is called Km is the substrate concentration at which the rate is half of its maximum. In the case of `N#CCc1ccccc1` [phenylacetonitrile], the Michaelis-Menten constant (Km) was 1290 µM.
